Key:
Type in all cases: biochemical
VEGF-R3 = target: T1, VEGF-R3 (Homo sapiens, UniProt P35916); test: Radiometric protein kinase assay, VEGF-R3; conditions: 1 μM ATP; read-out: Inhibitory activity (IC50:μM) VEGF-R3
T1 construct: host or cells: Sf9 insect cells (baculovirus)
Source text: (§1) All protein kinases were expressed in Sf9 insect cells as human recombinant GST-fusion proteins or His-tagged proteins by means of the baculovirus expression system. Kinases were purified by affinity chromatography using either GSH-agarose (Sigma) or Ni-NTH-agarose (Qiagen). The purity of each kinase was checked by SDS-PAGE/silver staining and the identity of each kinase was verified by western blot analysis with kinase specific antibodies or by mass spectroscopy.
(§2) A radiometric protein kinase assay (^33PanQinase® Activity Assay) was used for measuring the kinase activity of the 24 protein kinases. All kinase assays were performed in 96-well FlashPlates™ from Perkin Elmer (Boston, Mass., USA) in a 50 μl reaction volume. The reaction cocktail was pipetted in 4 steps in the following order: • 20 μl of assay buffer • 5 μl of ATP solution (in H2O) • 5 μl of test compound (in 10% DMSO) • 10 μl of substrate/10 […] of enzyme solution (premixed)
(§3) The assay for all enzymes contained 60 mM HEPES-NaOH, pH 7.5, 3 mM MgCl2, 3 mM MnCl2, 3 μM Na-orthovanadate, 1.2 mM DTT, 50 μg/ml PEG20000, 1 μM [γ-^33P]-ATP (approx. 5×10^05 cpm per well).
(§4) For the 24 kinase assays, the following amounts of enzyme and substrate were used per well:
(§5) The reaction cocktails were incubated at 30° C. for 80 minutes. The reaction was stopped with 50 μl of 2% (v/v) H3PO4, plates were aspirated and washed two times with 200 μl of 0.9% (w/v) NaCl or 200 μl H2O. Incorporation of ^33Pi was determined with a microplate scintillation counter (Microbeta Trilux, Wallac).
(§6) The median value of the counts in column 1 (n=8) of each assay plate was defined as “low control”. This value reflects unspecific binding of radioactivity to the plate in the absence of a protein kinase but in the presence of the substrate. The median value of the counts in column 7 of each assay plate (n=8) was taken as the “high control”, i.e. full activity in the absence of any inhibitor. The difference between high and low control was taken as 100% activity.
(§7) As part of the data evaluation the low control value from a particular plate was subtracted from the high control value as well as from all 80 “compound values” of the corresponding plate. The residual activity (in %) for each well of a particular plate was calculated by using the following formula: Res. Activity (%)=100×[(cpm of compound−low control)/(high control−low control)]
(§8) The residual activities for each concentration and the compound IC50 values were calculated using Quattro Workflow V2.1.0.0 (Quattro Research GmbH, Munich, Germany; www.quattro-research.com). The model used was “Sigmoidal response (variable slope)” with parameters “top” fixed at 100% and “bottom” at 0%.

TIE2 = target: T2, TIE2 (Homo sapiens, UniProt Q02763); test: Radiometric protein kinase assay, TIE2; conditions: 1 μM ATP; read-out: Inhibitory activity (IC50:μM) TIE2
T2 construct: host or cells: Sf9 insect cells (baculovirus)
Source text: as §1
as §2, with “(premixed) […]” for “(premixed)”
(§9) The reaction cocktails were incubated at 30° C. for 80 minutes. […] Incorporation of ^33Pi was determined with a microplate scintillation counter (Microbeta Trilux, Wallac).
(§10) The median value of the counts in column 1 (n=8) of each assay plate was defined as “low control”. This value reflects unspecific binding of radioactivity to the plate in the absence of a protein kinase but in the presence of the substrate. […]
as §7
The residual activities for each concentration and the compound IC50 values were calculated using Quattro Workflow V2.1.0.0 (Quattro Research GmbH, Munich, Germany; www.quattro-research.com). […]

Aurora-A = target: T3, Aurora-A (Homo sapiens, UniProt O14965); test: Radiometric protein kinase assay, Aurora-A; conditions: 1 μM ATP; read-out: Inhibitory activity (IC50:μM) Aurora-A
T3 construct: host or cells: Sf9 insect cells (baculovirus)
T3 sequence (O14965 1-403): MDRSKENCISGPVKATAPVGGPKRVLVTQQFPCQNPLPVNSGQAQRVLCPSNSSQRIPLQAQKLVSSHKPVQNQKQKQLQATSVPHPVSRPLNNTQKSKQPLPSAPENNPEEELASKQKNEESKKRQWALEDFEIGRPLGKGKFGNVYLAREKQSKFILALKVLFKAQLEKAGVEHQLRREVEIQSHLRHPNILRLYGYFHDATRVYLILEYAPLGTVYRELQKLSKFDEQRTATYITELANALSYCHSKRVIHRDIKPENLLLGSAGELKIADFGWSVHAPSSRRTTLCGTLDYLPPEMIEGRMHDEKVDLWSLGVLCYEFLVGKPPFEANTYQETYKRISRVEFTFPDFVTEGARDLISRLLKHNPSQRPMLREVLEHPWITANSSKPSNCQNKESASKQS
Source text: as §1, §2, §3, §4, §5, §6, §7, §8

B-RAF-VE = target: T4, B-RAF-VE (Homo sapiens, UniProt P15056, V600E); test: Radiometric protein kinase assay, B-RAF-VE; conditions: 1 μM ATP; read-out: Inhibitory activity (IC50:μM) B-RAF-VE
T4 construct: host or cells: Sf9 insect cells (baculovirus)
Source text: as §1
(§11) A radiometric protein kinase assay (^33PanQinase® Activity Assay) was used for measuring the kinase activity of the 24 protein kinases. […]
as §9, §10
(§12) As part of the data evaluation the low control value from a particular plate was subtracted from the high control value as well as from all 80 “compound values” of the corresponding plate. The residual activity (in %) for each well of a particular plate was calculated by using the following formula: Res. Activity (%)=100×[(cpm of compound−low control)/(high control−low control)] […]

ERBB2 = target: T5, ERBB2 (Homo sapiens, UniProt P04626); test: Radiometric protein kinase assay, ERBB2; conditions: 1 μM ATP; read-out: Inhibitory activity (IC50:μM) ERBB2
T5 construct: host or cells: Sf9 insect cells (baculovirus)
Source text: as §1, §11, §9, §10, §12

INS-R = target: T6, INS-R (Homo sapiens, UniProt P06213); test: Radiometric protein kinase assay, INS-R; conditions: 1 μM ATP; read-out: Inhibitory activity (IC50:μM) INS-R
T6 construct: host or cells: Sf9 insect cells (baculovirus)
Source text: as §1, §11, §9, §10, §12

T1 sequence (P35916 25-1363): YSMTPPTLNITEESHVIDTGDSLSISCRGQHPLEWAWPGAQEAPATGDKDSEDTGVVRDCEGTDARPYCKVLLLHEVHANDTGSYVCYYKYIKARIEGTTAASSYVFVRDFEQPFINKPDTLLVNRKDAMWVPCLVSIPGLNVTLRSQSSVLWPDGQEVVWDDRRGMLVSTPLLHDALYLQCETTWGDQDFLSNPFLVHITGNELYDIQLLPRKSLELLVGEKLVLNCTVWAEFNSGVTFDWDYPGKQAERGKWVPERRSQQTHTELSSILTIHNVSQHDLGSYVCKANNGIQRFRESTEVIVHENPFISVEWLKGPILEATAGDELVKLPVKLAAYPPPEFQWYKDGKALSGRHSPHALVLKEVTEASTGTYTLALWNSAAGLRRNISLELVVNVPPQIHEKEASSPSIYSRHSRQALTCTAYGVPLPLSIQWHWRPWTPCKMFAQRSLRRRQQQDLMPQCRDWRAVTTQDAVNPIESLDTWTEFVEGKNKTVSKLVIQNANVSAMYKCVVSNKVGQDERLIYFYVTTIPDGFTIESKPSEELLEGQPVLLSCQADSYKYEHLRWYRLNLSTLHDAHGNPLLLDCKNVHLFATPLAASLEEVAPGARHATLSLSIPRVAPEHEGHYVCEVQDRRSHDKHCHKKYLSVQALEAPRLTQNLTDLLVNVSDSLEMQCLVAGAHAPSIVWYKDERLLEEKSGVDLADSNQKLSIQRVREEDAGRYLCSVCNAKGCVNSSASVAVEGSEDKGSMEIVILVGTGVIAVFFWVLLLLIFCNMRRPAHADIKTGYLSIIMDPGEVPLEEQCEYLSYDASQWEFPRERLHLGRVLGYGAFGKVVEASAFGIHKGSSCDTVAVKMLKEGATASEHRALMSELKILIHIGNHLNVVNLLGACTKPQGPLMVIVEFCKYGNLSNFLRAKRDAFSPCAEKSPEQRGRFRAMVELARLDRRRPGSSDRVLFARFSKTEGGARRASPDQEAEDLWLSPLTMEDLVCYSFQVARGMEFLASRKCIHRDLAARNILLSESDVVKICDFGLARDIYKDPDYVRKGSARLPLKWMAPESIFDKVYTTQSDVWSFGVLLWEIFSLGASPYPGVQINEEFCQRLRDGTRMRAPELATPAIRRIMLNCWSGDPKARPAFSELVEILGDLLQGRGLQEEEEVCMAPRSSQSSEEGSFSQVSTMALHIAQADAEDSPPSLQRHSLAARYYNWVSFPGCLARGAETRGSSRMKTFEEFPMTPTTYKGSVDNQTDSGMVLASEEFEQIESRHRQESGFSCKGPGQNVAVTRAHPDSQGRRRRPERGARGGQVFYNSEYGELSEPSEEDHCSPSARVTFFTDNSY
T2 sequence (Q02763 23-1124): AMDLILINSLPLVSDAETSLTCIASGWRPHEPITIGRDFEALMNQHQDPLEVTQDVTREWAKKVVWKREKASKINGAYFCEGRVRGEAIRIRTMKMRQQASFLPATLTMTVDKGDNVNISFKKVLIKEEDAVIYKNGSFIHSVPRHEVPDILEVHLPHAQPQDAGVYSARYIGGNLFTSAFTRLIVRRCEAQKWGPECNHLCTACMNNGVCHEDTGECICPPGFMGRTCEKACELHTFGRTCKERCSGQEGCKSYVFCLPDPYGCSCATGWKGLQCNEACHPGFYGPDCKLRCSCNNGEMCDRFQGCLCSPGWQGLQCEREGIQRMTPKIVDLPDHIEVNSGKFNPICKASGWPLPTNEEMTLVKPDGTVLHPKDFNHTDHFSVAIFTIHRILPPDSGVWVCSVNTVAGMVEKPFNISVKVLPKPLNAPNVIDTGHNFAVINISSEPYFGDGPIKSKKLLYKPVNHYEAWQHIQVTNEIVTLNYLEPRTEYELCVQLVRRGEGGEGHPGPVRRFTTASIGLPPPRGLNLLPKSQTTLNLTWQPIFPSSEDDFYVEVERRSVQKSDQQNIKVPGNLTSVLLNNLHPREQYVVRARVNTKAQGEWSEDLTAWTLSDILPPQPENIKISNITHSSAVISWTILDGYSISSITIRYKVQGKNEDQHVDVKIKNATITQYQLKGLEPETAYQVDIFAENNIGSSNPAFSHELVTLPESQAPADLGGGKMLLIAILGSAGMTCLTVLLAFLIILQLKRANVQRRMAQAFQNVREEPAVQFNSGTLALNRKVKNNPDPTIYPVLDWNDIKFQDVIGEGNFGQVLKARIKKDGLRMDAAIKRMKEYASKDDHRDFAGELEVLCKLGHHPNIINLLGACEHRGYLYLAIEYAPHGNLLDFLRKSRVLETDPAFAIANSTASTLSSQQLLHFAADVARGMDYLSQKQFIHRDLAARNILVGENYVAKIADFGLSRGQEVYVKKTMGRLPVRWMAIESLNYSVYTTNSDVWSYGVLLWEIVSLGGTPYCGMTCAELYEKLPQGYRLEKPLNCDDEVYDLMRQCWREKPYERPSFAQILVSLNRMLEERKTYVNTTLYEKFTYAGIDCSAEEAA
T6 sequence (P06213 980-1382 limits assumed): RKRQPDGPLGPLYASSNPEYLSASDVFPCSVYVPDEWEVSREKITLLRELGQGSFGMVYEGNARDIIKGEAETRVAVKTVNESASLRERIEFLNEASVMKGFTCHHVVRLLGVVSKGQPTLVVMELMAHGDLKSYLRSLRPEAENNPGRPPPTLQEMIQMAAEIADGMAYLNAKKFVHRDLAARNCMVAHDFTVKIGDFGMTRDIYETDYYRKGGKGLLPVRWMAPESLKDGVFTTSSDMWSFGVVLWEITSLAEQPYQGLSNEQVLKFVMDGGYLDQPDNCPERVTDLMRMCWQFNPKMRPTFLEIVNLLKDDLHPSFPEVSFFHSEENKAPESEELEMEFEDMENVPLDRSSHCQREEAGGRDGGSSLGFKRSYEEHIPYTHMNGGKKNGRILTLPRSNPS
T5 sequence (P04626 23-1255): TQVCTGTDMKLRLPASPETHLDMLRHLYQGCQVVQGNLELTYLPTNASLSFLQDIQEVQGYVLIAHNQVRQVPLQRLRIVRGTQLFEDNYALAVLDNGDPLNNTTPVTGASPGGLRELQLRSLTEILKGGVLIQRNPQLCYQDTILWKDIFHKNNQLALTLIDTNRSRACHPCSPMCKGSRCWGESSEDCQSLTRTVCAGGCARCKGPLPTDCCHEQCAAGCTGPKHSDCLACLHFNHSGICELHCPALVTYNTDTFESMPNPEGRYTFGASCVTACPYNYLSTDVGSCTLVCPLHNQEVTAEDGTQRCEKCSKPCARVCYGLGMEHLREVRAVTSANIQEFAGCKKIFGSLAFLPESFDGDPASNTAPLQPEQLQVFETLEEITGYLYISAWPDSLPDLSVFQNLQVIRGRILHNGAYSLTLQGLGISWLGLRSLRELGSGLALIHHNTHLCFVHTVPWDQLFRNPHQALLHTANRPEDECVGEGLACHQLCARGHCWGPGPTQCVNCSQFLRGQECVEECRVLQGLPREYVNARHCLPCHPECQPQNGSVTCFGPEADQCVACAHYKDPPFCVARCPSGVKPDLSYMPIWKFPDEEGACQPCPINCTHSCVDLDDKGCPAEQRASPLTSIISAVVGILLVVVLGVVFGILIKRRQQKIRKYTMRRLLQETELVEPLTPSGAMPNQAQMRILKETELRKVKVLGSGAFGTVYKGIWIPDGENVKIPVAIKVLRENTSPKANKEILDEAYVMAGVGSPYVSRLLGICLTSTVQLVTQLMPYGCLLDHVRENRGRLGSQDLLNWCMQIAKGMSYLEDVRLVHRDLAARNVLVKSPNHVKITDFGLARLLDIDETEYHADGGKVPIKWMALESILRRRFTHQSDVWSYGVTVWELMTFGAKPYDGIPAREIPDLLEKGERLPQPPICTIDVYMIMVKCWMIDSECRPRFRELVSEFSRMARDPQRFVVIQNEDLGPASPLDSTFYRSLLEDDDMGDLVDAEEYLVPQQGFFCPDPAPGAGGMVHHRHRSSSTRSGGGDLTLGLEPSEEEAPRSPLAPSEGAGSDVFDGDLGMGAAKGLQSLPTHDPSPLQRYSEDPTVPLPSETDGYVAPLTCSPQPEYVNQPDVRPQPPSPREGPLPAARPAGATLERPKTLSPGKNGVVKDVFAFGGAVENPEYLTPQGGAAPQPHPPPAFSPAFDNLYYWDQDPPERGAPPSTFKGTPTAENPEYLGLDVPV
T4 sequence (P15056 whole entry V600E): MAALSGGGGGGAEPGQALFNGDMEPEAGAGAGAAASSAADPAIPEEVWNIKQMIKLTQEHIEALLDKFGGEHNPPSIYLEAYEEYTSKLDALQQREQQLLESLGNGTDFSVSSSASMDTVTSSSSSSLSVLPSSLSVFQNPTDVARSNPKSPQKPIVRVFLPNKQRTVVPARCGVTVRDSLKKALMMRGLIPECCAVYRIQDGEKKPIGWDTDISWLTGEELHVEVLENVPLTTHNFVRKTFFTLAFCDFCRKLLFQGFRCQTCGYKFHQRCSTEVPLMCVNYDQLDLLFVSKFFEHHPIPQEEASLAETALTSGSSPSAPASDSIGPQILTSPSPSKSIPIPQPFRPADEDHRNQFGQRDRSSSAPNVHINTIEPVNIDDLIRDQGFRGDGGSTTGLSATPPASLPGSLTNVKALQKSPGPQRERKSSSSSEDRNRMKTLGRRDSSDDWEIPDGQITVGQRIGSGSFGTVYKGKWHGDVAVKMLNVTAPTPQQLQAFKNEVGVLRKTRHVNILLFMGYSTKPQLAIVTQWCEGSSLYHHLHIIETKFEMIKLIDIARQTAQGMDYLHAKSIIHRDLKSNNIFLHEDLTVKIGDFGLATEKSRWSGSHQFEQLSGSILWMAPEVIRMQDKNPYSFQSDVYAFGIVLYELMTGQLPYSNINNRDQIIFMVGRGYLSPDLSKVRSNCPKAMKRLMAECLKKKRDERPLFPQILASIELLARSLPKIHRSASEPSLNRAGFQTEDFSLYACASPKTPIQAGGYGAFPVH

Row | IC50 (VEGF-R3) [µM] | IC50 (TIE2) [µM] | IC50 (Aurora-A) [µM] | IC50 (B-RAF-VE) [µM] | IC50 (ERBB2) [µM] | IC50 (INS-R) [µM] | Structure (SMILES)
1 | 34 | 25 | – | – | – | – | O=C1/C=C/CCC2OC2C[C@@H](Cc2ccccc2)OC(=O)c2c(O)cc(O)cc2C1 (stereo partly shown) [A-6]
2 | 31 | – | 47 | 50 | – | – | O=C1/C=C/CCC2OC2C[C@H](c2ccccc2)OC(=O)c2c(O)cc(O)c(Cl)c2C1 (stereo partly shown) [A-5]
3 | 40 | 16 | 14 | – | 16 | 36 | COC1CC/C=C/C[C@H](c2ccccc2)OC(=O)c2c(O)cc(O)c(Cl)c2CC(=O)C1 (stereo partly shown) [A-2]
4 | 31 | – | 30 | – | – | – | CC(C)[C@@H]1CC2OC2CC/C=C/C(=O)Cc2c(Cl)c(O)cc(O)c2C(=O)O1 (stereo partly shown) [A-4]
5 | 19 | 15 | – | – | 24 | 44 | O=C1Cc2c(Cl)c(O)cc(O)c2C(=O)O[C@H](c2ccccc2)C/C=C/CCC(Cl)C1 (stereo partly shown) [A-3]

Source: patent US8450305B2, “Macrocyclic compounds useful as inhibitors of kinases and HSP90” (Universite de Strasbourg, priority 2006, dated 2013)
